The text below walks through data of patent publication US8691195B2, “Peptide having activity of transforming growth factor and production method therefor” (Caregen Co., Ltd., priority 2009, dated 2014).

Series [1] relates to C57BL/6 Mice melanocytes. Put plainly: Inhibition of melanin generation in α-MSH-treated melanocytes. It counts as cell-based. To be noted: 200 μg/ml α-MSH alone (positive control), 3 days, FIG. 4. How it is done: To evaluate reduction of melanin pigment by the peptide 2 synthesized in Example 1, C57BL/6 Mice melanocytes cultured were incubated with α-MSH (melanocyte stimulating hormone; Sigma) and then with the peptide in the determined concentrations to measure inhibition effects on melanin generation. Mice melanocytes were cultured in DMEM (Dulbecco's modified Eagle's media; Sigma) supplemented with 10% FBS (fetal bovine serum; Sigma) at 37° C. under 5% CO2 conditions. Cells were cultured in a 24-well culture plate with a density of 1×10^5 cells/well and their adhesion to the plate was observed. Then, cells were incubated with each test group for 3 days: (a) a solvent as control; (b) 200 μg/ml α-MSH as a positive control; and (c) 200 μg/ml α-MSH plus 1 μg/ml or 10 μg/ml peptide 2. The test materials were prepared in such a manner that each component was dissolved in medium solvent and diluted at an equivalent rate to the aforementioned concentration using a mixed solvent of propylene glycol:ethanol:distilled water (5:3:2). After removing culture medium by centrifugation, melanin contents in each group could be observed with naked eye. […]
More specifically, cells were washed with PBS (phosphate buffered saline) and treated with 1 N sodium hydroxide. The resultants were analyzed to measure their absorbance values at 400 nm. […]

The test system of series [2] is tyrosinase. Kind of series: Tyrosinase activity in α-MSH-treated B16F10 cells (L-DOPA, absorbance at 405 nm). The class given is cell-based. To be noted: 4 days, FIG. 6. How it is done:
For verifying effects on skin whitening of the peptide synthesized in Example 1 and TGF-β, cells were treated with α-MSH and the inhibition in melanin generation was measured. B16F10 cells (Korean Cell Line Bank) were inoculated in a density of 1×10^5 cells/well and cultured in DMEM for 3 days. After cell adhesion was observed, medium was changed with a fresh medium containing 2% serum. Cells were incubated with each test group for 4 days: (a) no treatment as negative control; (b) 200 μg/ml α-MSH as a positive control; and (c) 200 μg/ml α-MSH plus 1 μg/ml or 10 μg/ml peptide 2. […] Subsequently, cells were harvested and treated with a lysis buffer to extract total proteins. The extracted proteins were quantitated by the BCA (bicinchonic acid) method. For each experiment group, 90 μl of protein solution and 10 μl of L-DOPA (L-3,4-dihydroxyphenylalanine; Sigma) were added and reacted for 30 min at 37° C. The resultants were analyzed to measure their absorbance values at 405 nm for evaluating tyrosinase activities.

Series [3] concerns B16F10 melanoma cells. Kind of series: Melanosome changes / cell morphology in α-MSH-treated B16F10 melanoma cells. It counts as cell-based. The note with it: 200 μg/ml α-MSH plus 10 μg/ml peptide, 4 days, FIG. 7. How it is done: (§1) First, B16F10 cells were plated at a 6-well plate in a density of 1×10^5 cells/well and cultured for 3 days. After cell adhesion was observed, medium was changed with a fresh medium containing 2% serum. Cells were incubated with each test group for 4 days: (a) no treatment as negative control; (b) 200 μg/ml α-MSH as a positive control; and (c) 200 μg/ml α-MSH plus 10 μg/ml peptide 2.

In series [4] the test system is procollagen. Kind of series: Procollagen production in NIH3T3 fibroblasts (Procollagen ELISA kit). It counts as cell-based. The note with it: NIH3T3, 1 μg/ml or 10 μg/ml, 72 hr, FIG. 9. How it is done: (§2) NIH3T3 cells cultured for 48 hr were incubated with the peptide of the present invention with a concentration of 1 μg/ml or 10 μg/ml for 72 hr, respectively. The levels of procollagen and fibronectin, indicators to show the improvement in skin wrinkle, were examined. The quantification was performed using Procollagen ELISA kit (Takara, Japan) and Fibronectin ELISA kit (CHEMICON, USA).
(ELISA stands for enzyme-linked immunosorbent assay.)

Series [5] has as its system fibronectin. Kind of series: Fibronectin production in NIH3T3 fibroblasts (Fibronectin ELISA kit). It counts as cell-based. The note with it: NIH3T3, 1 μg/ml or 10 μg/ml, 72 hr, FIG. 10. How it is done: as §2
Series [6] concerns TRP2. Kind of series: RT-PCR of TRP2 mRNA in α-MSH-treated B16F10 melanoma cells. The class given is cell-based. To be noted: 200 μg/ml α-MSH plus 10 μg/ml peptide, 4 days, FIG. 8. As for the experimental part:
(§3) To more clearly check activities of TGF-mimicking peptide on skin whitening in α-MSH-treated B16F10 melanoma cells, mRNA level of TRP1 (tyrosinase-related protein-1), TRP2 and MITF (microphthalmia-associated transcription factor) was measured using RT-PCR.
as §1
(§4) Subsequently, mRNA were extracted from cells and RT-PCR was carried out using primers for TRP1, TRP2 and MITF. The primer sequence is as follows: TRP1 F-primer, 5′-[…]-3′ and TRP1 R-primer, 5′-[…]-3′; TRP2 F-primer, 5′-[…]-3′ and TRP2 R-primer, 5′-[…]-3′; and MITF F-primer, 5′-[…]-3′ and MITF R-primer, 5′-[…]-3′.

Series [7] can be described thus: Heat stability: residual activity by MTT assay after storage at 40° C. It counts as physicochemical. To be noted: days 0-100, MTT assay, FIG. 3. As for the experimental part: To evaluate heat stability of the peptide 2 prepared in Example 1, the peptide 2 was dissolved in 50 mM Tris-HCl buffer (pH 8.0) to a concentration of 10 μg/ml. Recombinant TGF-β1 (Sigma) as control was produced from E. coli and dissolved in 50 mM Tris-HCl buffer (pH 8.0) at a concentration of 1 μg/ml. The prepared solutions were introduced into glass vials and kept to stand at 40° C. Afterwards, the solutions were taken on days 0, 1, 10, 25, 50, 75 and 100, and subjected to MTT assay (Scudiero, D. A., et al., Cancer Res., 48: 4827-4833 (1988)) to determine residual activities of the peptide and recombinant TGF-β1 (FIG. 3).
On the technique in general: Tetrazolium dyes change colour on reduction, which living cells bring about.

Series [8] relates to TRP1 (tyrosinase-related protein-1). Put plainly: RT-PCR of TRP1 mRNA in α-MSH-treated B16F10 melanoma cells. It counts as cell-based. The note with it: 200 μg/ml α-MSH plus 10 μg/ml peptide, 4 days, FIG. 8. How it is done:
as §3, §1, §4

Series [9] relates to MITF (microphthalmia-associated transcription factor). Put plainly: RT-PCR of MITF mRNA in α-MSH-treated B16F10 melanoma cells. The class given is cell-based. The note with it: 200 μg/ml α-MSH plus 10 μg/ml peptide, 4 days, FIG. 8. How it is done:
as §3, §1, §4

Ends that are not written are not given here.

Take “α-MSH: melanocyte stimulating hormone (Sigma), inducer of melanin generation, positive control (SYSMEHFRWGKPV; ends and bridges not checked; UniProt P01189 138-150, looked up) [reference compound]”: the melanin content entry in series [1] is given as “strikingly increased”. Moreover, the tyrosinase activity result in series [2] (200 μg/ml α-MSH only) was “highly elevated level”.
Regarding “NH2-Gly-Arg-Gly-Asp-Tyr-Ile-Trp-Ser-Leu-Asp-Thr-Gln-OH (H-GRGDYIWSLDTQ-OH) [peptide 2]”, the α-MSH-induced melanosomes result in series [3] is “eliminated”. Also, in series [4], the production of procollagen entry was “remarkably promote”. Further, in series [5], the level of fibronectin result was “increase”. For the same substance, the “mRNA level of TRP2” value in series [6] is recorded as “inhibit”. In addition, the “residual activity over time (heat stability)” value in series [7] (10 μg/ml in 50 mM Tris-HCl buffer (pH 8.0)) is on record as “not to be decreased over time”. Besides, in [2] (200 μg/ml α-MSH plus 1 μg/ml or 10 μg/ml peptide, versus α-MSH only), the “reduction of tyrosinase activity” value is given as “about 30%”. Further, in [8], the “mRNA level of TRP1” value was “inhibit”. In addition, the “mRNA level of MITF” value in series [9] is “inhibit”.
As for “recombinant TGF-β1: Recombinant TGF-β1 (Sigma) produced from E. coli, used as control”, the “residual activity over time (heat stability)” value in [7] (1 μg/ml in 50 mM Tris-HCl buffer (pH 8.0)) was “sharply decreased with the lapse of time”.
